Consider four molecules from PubChem BioAssay AID1259407 (Chemical Carcinogenesis Research Information System (CCRIS), 2018).

Calls of active or inactive are those of the source. How the calls were made is not given here.

This data set concerns CCRIS mutagenicity, Ames/micronucleus/aberration tests. Nature of the data set: CCRIS mutagenicity studies.
[1] abbreviates: Test System: AMES SALMONELLA TYPHIMURIUM, Strain/Indicator: TA100, Metabolic Activation: NONE, Method: STANDARD PLATE.

`CC(=O)Oc1ccc(CO)cc1`: the mutagenic call under setting [1] is “inactive; negative”.
On to `Nc1ccc(O)c(N)c1`, for which the mutagenic call by setting is: (End Point: IN VITRO CHROMOSOMAL ABERRATIONS, Test System: CHINESE HAMSTER OVARY CELLS, Metabolic Activation: NONE) “inactive; negative”; (End Point: IN VITRO CHROMOSOMAL ABERRATIONS, Test System: CHINESE HAMSTER OVARY CELLS, Metabolic Activation: RAT, LIVER, S-9, AROCLOR 1254) “inactive; negative”; (Test System: AMES SALMONELLA TYPHIMURIUM, Strain/Indicator: TA98, Metabolic Activation: HAMSTER, LIVER, S-9, AROCLOR 1254 (10%), Method: PREINCUBATION) “active; positive”; (Test System: AMES SALMONELLA TYPHIMURIUM, Strain/Indicator: TA98, Metabolic Activation: NONE, Method: PREINCUBATION) “inactive; negative”; (Test System: AMES SALMONELLA TYPHIMURIUM, Strain/Indicator: TA98, Metabolic Activation: RAT, LIVER, S-9, AROCLOR 1254 (10%), Method: PREINCUBATION) “active; positive”; (Test System: AMES SALMONELLA TYPHIMURIUM, Strain/Indicator: TA100, Metabolic Activation: HAMSTER, LIVER, S-9, AROCLOR 1254 (10%), Method: PREINCUBATION) “inactive; negative”. The mutagenic call by setting is: (Test System: AMES SALMONELLA TYPHIMURIUM, Strain/Indicator: TA100, Metabolic Activation: NONE, Method: PREINCUBATION) “inactive; negative”; (Test System: AMES SALMONELLA TYPHIMURIUM, Strain/Indicator: TA100, Metabolic Activation: RAT, LIVER, S-9, AROCLOR 1254 (10%), Method: PREINCUBATION) “inactive; negative”; (Test System: AMES SALMONELLA TYPHIMURIUM, Strain/Indicator: TA1535, Metabolic Activation: HAMSTER, LIVER, S-9, AROCLOR 1254 (10%), Method: PREINCUBATION) “inactive; negative”; (Test System: AMES SALMONELLA TYPHIMURIUM, Strain/Indicator: TA1535, Metabolic Activation: NONE, Method: PREINCUBATION) “inactive; negative”; (Test System: AMES SALMONELLA TYPHIMURIUM, Strain/Indicator: TA1535, Metabolic Activation: RAT, LIVER, S-9, AROCLOR 1254 (10%), Method: PREINCUBATION) “inactive; negative”; (Test System: AMES SALMONELLA TYPHIMURIUM, Strain/Indicator: TA1537, Metabolic Activation: HAMSTER, LIVER, S-9, AROCLOR 1254 (10%), Method: PREINCUBATION) “inactive; negative”. In addition, the mutagenic call by setting is: (Test System: AMES SALMONELLA TYPHIMURIUM, Strain/Indicator: TA1537, Metabolic Activation: NONE, Method: PREINCUBATION) “inactive; negative”; (Test System: AMES SALMONELLA TYPHIMURIUM, Strain/Indicator: TA1537, Metabolic Activation: RAT, LIVER, S-9, AROCLOR 1254 (10%), Method: PREINCUBATION) “inactive; negative”; (Test System: MOUSE LYMPHOMA, Strain/Indicator: L5178Y (TK+/TK-), Metabolic Activation: NONE, Method: SUSPENSION/PLATE) “active; positive”.
In the case of `Cc1cc(-c2cc3c(cc2F)n2c(=O)n(O)c(=O)cc2n3C2CC2)cc(C)n1`, the mutagenic call (Test System: AMES SALMONELLA TYPHIMURIUM, Strain/Indicator: TA102, Metabolic Activation: NONE, Method: STANDARD PLATE) was “active; positive”.
`CC(C)N1C(=O)c2ccccc2NS1(=O)=O`: the mutagenic call by setting is: (Test System: AMES SALMONELLA TYPHIMURIUM, Strain/Indicator: TA97, Metabolic Activation: NONE, Method: STANDARD PLATE) “inactive; negative”; (Test System: AMES SALMONELLA TYPHIMURIUM, Strain/Indicator: TA97, Metabolic Activation: RAT, LIVER, S-9, DELOR 103, Method: STANDARD PLATE) “inactive; negative”; (Test System: AMES SALMONELLA TYPHIMURIUM, Strain/Indicator: TA98, Metabolic Activation: NONE, Method: STANDARD PLATE) “inactive; negative”; (Test System: AMES SALMONELLA TYPHIMURIUM, Strain/Indicator: TA98, Metabolic Activation: RAT, LIVER, S-9, DELOR 103, Method: STANDARD PLATE) “inactive; negative”; under setting [1], “inactive; negative”; (Test System: AMES SALMONELLA TYPHIMURIUM, Strain/Indicator: TA100, Metabolic Activation: RAT, LIVER, S-9, DELOR 103, Method: STANDARD PLATE) “inactive; negative”. The mutagenic call was “inactive; negative” (Test System: AMES SALMONELLA TYPHIMURIUM, Strain/Indicator: TA1535, Metabolic Activation: NONE, Method: STANDARD PLATE); “inactive; negative” (Test System: AMES SALMONELLA TYPHIMURIUM, Strain/Indicator: TA1535, Metabolic Activation: RAT, LIVER, S-9, DELOR 103, Method: STANDARD PLATE); “inactive; negative” (Test System: AMES SALMONELLA TYPHIMURIUM, Strain/Indicator: TA1538, Metabolic Activation: NONE, Method: STANDARD PLATE); “inactive; negative” (Test System: AMES SALMONELLA TYPHIMURIUM, Strain/Indicator: TA1538, Metabolic Activation: RAT, LIVER, S-9, DELOR 103, Method: STANDARD PLATE).
